Laboratory results as given in patent publication US4695569A, “Bicyclic heterocyclyl containing N-(bicyclic heterocyclyl)-4-piperidinamines” (Janssen Pharmaceutica N.V., priority 1987, dated 1987).

test system: compound 48/80-induced lethality; test: Protection of rats from compound 48/80-induced lethality; format: in vivo, rat (male, inbred Wistar strain); conditions: Rattus norvegicus, 4 h, read-out: Compound 48/80 lethality test in rats-ED50
Method: Protection of rats from compound 48/80-induced lethality
The protection from compound 48/80-induced lethal circulatory collapse appears to be a simple way of evaluating quantitatively the antihistaminic activity of test compounds. Male rats of an inbred Wistar strain, weighing 240-260 g were used in the experiment. After overnight starvation the rats were transferred to conditioned laboratories (temp.=21±1° C., relative humidity=65±5%).
The rats were treated subcutaneously or orally with a test compound or with the solvent (NaCl solution, 0.9%). […] Survival after 4 hours is therefore considered to be a safe criterion of a protective effect of drug administration.
The ED50 -values of the compounds of formula (I) are listed in the first column of table 1. Said ED50 -values are the values in mg/kg body weight at which the tested compounds protect 50% of the tested animals against compound 48/80-induced lethality.

First: Cc1nc2nc(NCCN3CCC(Nc4nc5ccccc5n4Cc4ccc(F)cc4)CC3)ccc2[nH]1 [Compound 146, N-[2-[4-[[1-[(4-fluorophenyl)methyl]-1H-benzimidazol-2-yl]amino]-1-piperidinyl]ethyl]-2-methyl-1H-imidazo[4,5-b]pyridin-5-amine]
Second: Cc1nc2c(NCCN3CCC(Nc4nc5ccccc5n4Cc4ccc(F)cc4)CC3)ncnc2n1C [Compound 96]
The ED50 of the first is 4-fold lower: 0.04 mg/kg for the first, 0.16 mg/kg for the second.

Compared with `c1csc(Cn2c(NC3CCN(CCNc4nc5cnccc5[nH]4)CC3)nc3ccccc32)c1` [Compound 117], `c1ccc(Cn2c(NC3CCN(CCNc4nc5cnccc5[nH]4)CC3)nc3cccnc32)nc1` [Compound 113] is 2-fold higher in ED50: 0.02 mg/kg for the first, 0.04 mg/kg for the second.

`Cc1nc2sccn2c(=O)c1CCN1CCC(Nc2nc3cccnc3n2Cc2ccco2)CC1` [Compound 28] and `Cc1nc2sccn2c(=O)c1CCN1CCC(Nc2nc3ccccc3n2Cc2ccco2)CC1` [Compound 31] are the same in ED50: 0.04 mg/kg for the first, 0.04 mg/kg for the second.

`Cn1c(=O)c2c(ncn2CCN2CCC(Nc3nc4ccccc4n3Cc3ccco3)CC2)n(C)c1=O` [Compound 39] and `Cn1c(=O)c2c(ncn2CCN2CCC(Nc3nc4cccnc4n3Cc3ccco3)CC2)n(C)c1=O` [Compound 42] are the same in ED50: 0.16 mg/kg for the first, 0.16 mg/kg for the second.

First: Cn1c(=O)n(CCN2CCC(Nc3nc4cccnc4n3Cc3ccco3)CC2)c(=O)c2ccccc21 [Compound 35]
Second: O=c1[nH]c2ccccc2c(=O)n1CCN1CCC(Nc2nc3cccnc3n2Cc2ccco2)CC1 [Compound 26]
The ED50 of the first is 4-fold lower: 0.02 mg/kg for the first, 0.08 mg/kg for the second.

First: Cn1c(=S)n(CCN2CCC(Nc3nc4ccccc4n3Cc3ccco3)CC2)c(=O)c2ccccc21 [Compound 129, 3-[2-[4-[[1-(2-furanylmethyl)-1H-benzimidazol-2-yl]amino]-1-piperidinyl]ethyl]-2,3-dihydro-1-methyl-2-thioxo-4(1H)-quinazolinone]
Second: O=c1c2ccccc2[nH]c(=S)n1CCN1CCC(Nc2nc3ccccc3n2Cc2ccco2)CC1 [Compound 132, 3-[2-[4-[[1-(2-furanylmethyl)-1H-benzimidazol-2-yl]amino]-1-piperidinyl]ethyl]-2,3-dihydro-2-thioxo-4(1H)-quinazolinone]
The ED50 of the first is 2-fold lower: 0.08 mg/kg for the first, 0.16 mg/kg for the second.

`Cc1nc2n(c(=O)c1CCN1CCC(Nc3nc4ccccc4n3Cc3ccco3)CC1)CCS2` [Compound 18] and `Cc1nc2n(c(=O)c1CCN1CCC(Nc3nc4cccnc4n3Cc3ccco3)CC1)CCS2` [Compound 48] are the same in ED50: 0.08 mg/kg for the first, 0.08 mg/kg for the second.

`Fc1ccc(Cn2c(NC3CCN(CCc4cn5ccsc5n4)CC3)nc3ccccc32)cc1` [Compound 149, 1-[(4-fluorophenyl)methyl]-N-[1-[2-(imidazo[2,1-b]thiazol-6-yl)ethyl]-4-piperidinyl]-1H-benzimidazol-2-amine] and `Fc1ccc(Cn2c(NC3CCN(CCc4cn5cccnc5n4)CC3)nc3ccccc32)cc1` [Compound 151, 1-[(4-fluorophenyl)methyl]-N-[1-[2-(imidazo[3,2-a]pyrimidin-2-yl)ethyl]-4-piperidinyl]-1H-benzimidazol-2-amine] are the same in ED50: 0.08 mg/kg for the first, 0.08 mg/kg for the second.

First: O=c1[nH]c2ccccc2c(=O)n1CCCN1CCC(Nc2nc3ccccc3n2Cc2ccco2)CC1 [Compound 30]
Second: O=c1[nH]c2ccccc2c(=O)n1CCCCN1CCC(Nc2nc3ccccc3n2Cc2ccco2)CC1 [Compound 128, 3-[4-[4-[[1-(2-furanylmethyl)-1H-benzimidazol-2-yl]amino]-1-piperidinyl]-butyl]-2,4(1H,3H)-quinazolinedione]
The ED50 of the first is 2-fold higher: 0.16 mg/kg for the first, 0.08 mg/kg for the second.

First: Cc1nc2n(c(=O)c1CCN1CCC(Nc3nc4ccccc4n3Cc3ccc(Cl)cc3)CC1)CCCC2 [Compound 69]
Second: Cc1nc2n(c(=O)c1CCN1CCC(Nc3nc4ccccc4n3Cc3ccc(F)cc3)CC1)CCCC2 [Compound 45]
The ED50 of the first is 2-fold higher: 0.16 mg/kg for the first, 0.08 mg/kg for the second.

`Cc1nc2n(c(=O)c1CCN1CCC(Nc3nc4ccccc4n3Cc3ccccn3)CC1)CCCC2` [Compound 57] and `Cc1nc2n(c(=O)c1CCN1CCC(Nc3nc4ccccc4n3Cc3ccco3)CC1)CCCC2` [Compound 44] are the same in ED50: 0.16 mg/kg for the first, 0.16 mg/kg for the second.

`Cc1nc2ccccn2c(=O)c1CCN1CCC(Nc2nc3ccncc3n2Cc2ccc(F)cc2)CC1` [Compound 79] and `Cc1nc2ccccn2c(=O)c1CCN1CCC(Nc2nc3cccnc3n2Cc2ccc(F)cc2)CC1.Cl.Cl` [Compound 22, 3-[2-[4-[[3-[(4-fluorophenyl)methyl]-3H-imidazo[4,5-b]-pyridin-2-yl]amino]-1-piperidinyl]ethyl]-2-methyl-4H-pyrido[1,2-a]pyrimidin-4-one dihydrochloride] are the same in ED50: 0.16 mg/kg for the first, 0.16 mg/kg for the second.

Going from `Fc1ccc(Cn2c(NC3CCN(CCOc4nc5cccnc5s4)CC3)nc3ccccc32)cc1` [Compound 107, 1-[(4-fluorophenyl)methyl]-N-[1-[2-[(thiazolo[5,4-b]pyridin-2-yl)oxy]ethyl]-4-piperidinyl]-1H-benzimidazol-2-amine] to `Cc1nc2sccn2c(=O)c1CCN1CCC(Nc2nc3ccccc3n2Cc2ccc(F)cc2)CC1` [Compound 27], the ED50 falls from 0.16 mg/kg to 0.08 mg/kg (2-fold).

First: Cc1nc2n(c(=O)c1CCN1CCC(Nc3nc4cccnc4n3Cc3ccc(F)cc3)CC1)CCCS2 [Compound 16]
Second: Cc1nc2n(c(=O)c1CCN1CCC(Nc3nc4cccnc4n3Cc3ccco3)CC1)CCCS2 [Compound 14]
The ED50 of the first is 8-fold higher: 0.16 mg/kg for the first, 0.02 mg/kg for the second.

First: O=c1[nH]c2c(Cl)ncnc2n1CCN1CCC(Nc2nc3ccccc3n2Cc2ccc(F)cc2)CC1 [Compound 144, 6-chloro-9-[2-[4-[[1-[(4-fluorophenyl)methyl]-1H-benzimidazol-2-yl]amino]-1-piperidinyl]ethyl]-7,9-dihydro-8H-purin-8-one]
Second: O=c1[nH]c2ccccc2c(=O)n1CCN1CCC(Nc2nc3cccnc3n2Cc2ccc(F)cc2)CC1 [Compound 25]
The ED50 of the first is 2-fold lower: 0.08 mg/kg for the first, 0.16 mg/kg for the second.

Compared with `O=c1[nH]c2ccccc2c(=O)n1CCCN1CCC(Nc2nc3cccnc3n2Cc2ccco2)CC1` [Compound 32], `O=c1[nH]c2ccccc2c(=O)n1CCCN1CCC(Nc2nc3cccnc3n2Cc2ccc(F)cc2)CC1` [Compound 37] is 4-fold higher in ED50: 0.04 mg/kg for the first, 0.16 mg/kg for the second.

First: Cc1nc2cccc(C)n2c(=O)c1CCN1CCC(Nc2nc3cccnc3n2Cc2ccco2)CC1 [Compound 75]
Second: Cc1nc2ccc(Br)cn2c(=O)c1CCN1CCC(Nc2nc3cccnc3n2Cc2ccco2)CC1 [Compound 76]
The ED50 of the first is 8-fold lower: 0.01 mg/kg for the first, 0.08 mg/kg for the second.

`Cn1c(=O)c2c(ncn2CCN2CCC(Nc3nc4cccnc4n3Cc3ccc(F)cc3)CC2)n(C)c1=O` [Compound 43] and `Cn1c(=O)n(CCN2CCC(Nc3nc4cccnc4n3Cc3ccc(F)cc3)CC2)c(=O)c2ccccc21` [Compound 36] are the same in ED50: 0.16 mg/kg for the first, 0.16 mg/kg for the second.

Compared with `Cn1cnc2c(NCCN3CCC(Nc4nc5ccccc5n4Cc4ccccc4)CC3)ncnc21` [Compound 100], `Cn1cnc2c(NCCN3CCC(Nc4nc5cc(O)ccc5n4Cc4ccc(F)cc4)CC3)ncnc21` [Compound 102] is 2-fold lower in ED50: 0.16 mg/kg for the first, 0.08 mg/kg for the second.

First: Cc1nc2ccccn2c(=O)c1CCN1CCC(Nc2nc3ccccc3n2Cc2cnccn2)CC1 [Compound 68, 2-methyl-3-[2-[4-[[1-(2-pyrazinylmethyl)-1H-benzimidazol-2-yl]amino]-1-piperidinyl]ethyl]-4H-pyrido[1,2-a]pyrimidin-4-one]
Second: Cc1nc2n(c(=O)c1CCN1CCC(Nc3nc4cccnc4n3Cc3ccco3)CC1)C(C)CCC2 (stereo not drawn) [Compound 54]
The ED50 of the first is 3.9-fold lower: 0.08 mg/kg for the first, 0.31 mg/kg for the second.

test system: serotonin; test: Antagonistic activity on the effects of serotonin in the gastric lesion test (lesions induced by compound 48/80); format: in vivo, rat (male, Wistar inbred strain); conditions: Rattus norvegicus, po, 4 h, read-out: gastric lesion test ED50 (distension of the stomach and lesions in the glandular area completely absent in 50% of rats)
Description: The compounds of formula (I) and the pharmaceutically acceptable acid addition salts thereof are also potent serotonin-antagonists. The potency of the subject compounds as serotonin-antagonists is clearly evidenced by the results obtained in the following tests wherein the antagonistic activity of the subject compounds on the effect of serotonin is examined.
Antagonistic activity on the effects of serotonin in the gastric lesion test
Comound 48/80 (a mixture of oligomers obtained by condensation of 4-methoxy-N-methylbenzeneethanamine and formaldehyde) is a potent releaser of vasoactive amines from endogenous stores such as, for example, histamine and serotonin. […] The shock, followed by dead, can be avoided if the rats are pretreated with a classical H 1 antagonist.
Male rats of a Wistar inbred strain, weighing 220-250 g, were starved overnight, water being available ad libitum. The test compounds were administered orally as a solution or as a suspension in aqueous medium. A control rat and a "blank" rat received the test compound. One hour later 5-[4-(diphenylmethyl)-1-piperazinylmethyl]-1-methyl-1H-benzimidazole-2-methanol was administered subcutaneously to all rats at the dose of 2.5 mg/kg.
Four hours after the intravenous injection of compound 48/80, the rats were decapitated and the stomachs were removed. Subsequently the stomachs ere inspected for distension and contents (blood, fluid, food) and thoroughly rinsed. The macroscopic lesions were scored from 0 to +++, 0 corresponding to complete absence of visible lesions and the highest score corresponding to reddish rough patches covering more than half the glandular area.

Compound `Cc1nc2sccn2c(=O)c1CCN1CCC(Nc2nc3cccnc3n2Cc2ccco2)CC1` [Compound 28] has an ED50 of 0.16 mg/kg.

same assay, conditions: Rattus norvegicus, po, 4 h; read-out: gastric lesion test ED50 (distension of the stomach and lesions in the glandular area completely absent in 50% of rats)

`Cc1nc2nc(NCCN3CCC(Nc4nc5ccccc5n4Cc4ccc(F)cc4)CC3)ccc2[nH]1` [Compound 146, N-[2-[4-[[1-[(4-fluorophenyl)methyl]-1H-benzimidazol-2-yl]amino]-1-piperidinyl]ethyl]-2-methyl-1H-imidazo[4,5-b]pyridin-5-amine] and `Fc1ccc(Cn2c(NC3CCN(CCc4cn5ccsc5n4)CC3)nc3ccccc32)cc1` [Compound 149, 1-[(4-fluorophenyl)methyl]-N-[1-[2-(imidazo[2,1-b]thiazol-6-yl)ethyl]-4-piperidinyl]-1H-benzimidazol-2-amine] are the same in ED50: 0.08 mg/kg for the first, 0.08 mg/kg for the second.

First: c1csc(Cn2c(NC3CCN(CCNc4nc5cnccc5[nH]4)CC3)nc3ccccc32)c1 [Compound 117]
Second: Cc1nc2sccn2c(=O)c1CCN1CCC(Nc2nc3ccccc3n2Cc2ccco2)CC1 [Compound 31]
The ED50 of the first is 16-fold higher: 0.31 mg/kg for the first, 0.02 mg/kg for the second.

Compared with `Cn1c(=O)c2c(ncn2CCN2CCC(Nc3nc4ccccc4n3Cc3ccco3)CC2)n(C)c1=O` [Compound 39], `Cn1c(=S)n(CCN2CCC(Nc3nc4ccccc4n3Cc3ccco3)CC2)c(=O)c2ccccc21` [Compound 129, 3-[2-[4-[[1-(2-furanylmethyl)-1H-benzimidazol-2-yl]amino]-1-piperidinyl]ethyl]-2,3-dihydro-1-methyl-2-thioxo-4(1H)-quinazolinone] is 2-fold lower in ED50: 0.63 mg/kg for the first, 0.31 mg/kg for the second.

For `Cc1nc2n(c(=O)c1CCN1CCC(Nc3nc4ccccc4n3Cc3ccco3)CC1)CCS2` [Compound 18], the ED50 was 0.16 mg/kg.
